# Experimental data published in US20250152675A1, “I-TYPE RECOMBINANT COLLAGEN WITH HIGH TRANSDERMAL ABSORBABILITY, AND USE THEREOF” (XI'AN GIANT BIOGENE TECHNOLOLGY CO., LTD, priority 2022, published 2025).
# Residues, ends and D or L forms follow the SMILES beside them.
# Experiment: Transdermal penetration through ex vivo mouse skin in a single-chamber diffusion cell, content by BCA kit
# Type: in vitro ADME, Kunming mice
# Conditions: collagen peptide 5 mg/ml in 0.9% NaCl, diffusion area 2.0 cm^2, 37.5° C.
# Procedure: 1. Preparation of Mouse Skin Ex Vivo 10 Kunming mice of 20 to 22 g with half male and half […] were used in the experiment. After the mice were killed, the hairs on the abdomen were removed. Then the skin on the hair-removed area was peeled off, stripped of fat and tendons, and rinsed repeatedly with distilled water. After being washed, the mouse skins were rinsed with normal saline, then treated with 10% glycerol, and stored at −20° C. for use (use up within 7 days).
# Single-chamber diffusion cell: The effective diffusion area of the diffusion cell is 2.0 cm^2, the volume of the receiving cell is 14 ml, the length of the custom-made stirrer is 1.4 cm, and the receiving solution is 0.9% NaCl solution.
# The stored mouse skin was taken out, thawed, washed with normal saline, and sandwiched between the receiving chamber and the supplying chamber, with the medicated side facing the supplying chamber and the skin side facing the receiving chamber. The temperature of the water bath system was adjusted to 37.5° C., and the stirring speed was adjusted to 100 rpm/min. 0.9% NaCl solution pre-warmed at 37° C. was added to the receiving chamber and the air bubbles were exhausted, in order to reduce the interference, the inner surface of the mouse skin was firstly contacted with the receiving solution without medication and all the receiving solution was replaced. Then the 27 collagen peptides synthesized were prepared into 5 mg/ml solutions using 0.9% NaCl respectively, which were injected into the supplying chamber and firmly adhere to the mouse skin respectively. After 24 h, part of the receiving solution was absorbed with a syringe as the sample solution to determine the transdermal amount of collagen peptide.
# The BCA kit method was used to determine the polypeptide content in the sample solution. […]
row,SMILES,24h penetration amount
1,CC(C)[C@H](NC(=O)[C@H](C)NC(=O)CNC(=O)[C@@H]1CCCN1C(=O)[C@@H]1CCCN1C(=O)CNC(=O)[C@@H]1CCCN1C(=O)[C@@H](NC(=O)CNC(=O)[C@H](CCCNC(=N)N)NC(=O)[C@H](CCC(=O)O)NC(=O)CN)C(C)C)C(=O)NCC(=O)N1CCC[C@H]1C(=O)N[C@@H](C)C(=O)NCC(=O)N[C@@H](CCCCN)C(=O)N[C@@H](CC(=O)O)C(=O)NCC(=O)N[C@@H](CCC(=O)O)C(=O)N[C@@H](C)C(=O)NCC(=O)N[C@@H](C)C(=O)N[C@@H](CCC(N)=O)C(=O)NCC(=O)N1CCC[C@H]1C(=O)N1CCC[C@H]1C(=O)NCC(=O)N1CCC[C@H]1C(=O)N[C@@H](C)C(=O)NCC(=O)N1CCC[C@H]1C(=O)N[C@@H](C)C(=O)NCC(=O)N[C@@H](CCC(=O)O)C(=O)N[C@@H](CCCNC(=N)N)C(=O)O [compound 12] (H-GERGVPGPPGAVGPAGKDGEAGAQGPPGPAGPAGER-OH; N-terminus and C-terminus assumed),2613.34 µg
2,CC(C)C[C@H](NC(=O)[C@H](CC(=O)O)NC(=O)CNC(=O)[C@@H]1CCCN1C(=O)[C@@H](NC(=O)CNC(=O)[C@H](CCC(N)=O)NC(=O)[C@H](CCC(=O)O)NC(=O)CNC(=O)[C@@H]1CCCN1C(=O)[C@H](CCCCN)NC(=O)CNC(=O)[C@H](C)NC(=O)[C@H](CCC(=O)O)NC(=O)CNC(=O)[C@@H]1CCCN1C(=O)[C@@H]1CCCN1C(=O)CNC(=O)[C@H](C)NC(=O)[C@@H]1CCCN1C(=O)CNC(=O)[C@@H]1CCCN1C(=O)[C@H](CC(C)C)NC(=O)CN)C(C)C)C(=O)NCC(=O)N[C@@H](C)C(=O)N1CCC[C@H]1C(=O)NCC(=O)N1CCC[C@H]1C(=O)N[C@@H](CO)C(=O)NCC(=O)N[C@@H](C)C(=O)N[C@@H](CCCNC(=N)N)C(=O)NCC(=O)N[C@@H](CCC(=O)O)C(=O)N[C@@H](CCCNC(=N)N)C(=O)O [compound 13] (H-GLPGPAGPPGEAGKPGEQGVPGDLGAPGPSGARGER-OH; N-terminus and C-terminus assumed),2098.04 µg
3,CC(C)C[C@H](NC(=O)[C@H](CC(=O)O)NC(=O)CNC(=O)[C@@H]1CCCN1C(=O)[C@@H](NC(=O)CN)C(C)C)C(=O)NCC(=O)N[C@@H](C)C(=O)N1CCC[C@H]1C(=O)NCC(=O)N1CCC[C@H]1C(=O)N[C@@H](CO)C(=O)NCC(=O)N[C@@H](C)C(=O)N[C@@H](CCCNC(=N)N)C(=O)NCC(=O)N[C@@H](CCC(=O)O)C(=O)N[C@@H](CCCNC(=N)N)C(=O)NCC(=O)N[C@@H](Cc1ccccc1)C(=O)N1CCC[C@H]1C(=O)NCC(=O)N[C@@H](CCC(=O)O)C(=O)N[C@@H](CCCNC(=N)N)C(=O)NCC(=O)N[C@H](C(=O)N[C@@H](CCC(N)=O)C(=O)NCC(=O)N1CCC[C@H]1C(=O)N1CCC[C@H]1C(=O)NCC(=O)N1CCC[C@H]1C(=O)N[C@@H](C)C(=O)NCC(=O)N1CCC[C@H]1C(=O)N[C@@H](CCCNC(=N)N)C(=O)O)C(C)C [compound 14] (H-GVPGDLGAPGPSGARGERGFPGERGVQGPPGPAGPR-OH; N-terminus and C-terminus assumed),2045.62 µg
4,CC(C)[C@H](NC(=O)CNC(=O)[C@H](CCCNC(=N)N)NC(=O)[C@H](CCC(=O)O)NC(=O)CN)C(=O)N[C@@H](CCC(N)=O)C(=O)NCC(=O)N1CCC[C@H]1C(=O)N1CCC[C@H]1C(=O)NCC(=O)N1CCC[C@H]1C(=O)N[C@@H](C)C(=O)NCC(=O)N1CCC[C@H]1C(=O)N[C@@H](CCCNC(=N)N)C(=O)NCC(=O)N[C@@H](C)C(=O)N[C@@H](CC(N)=O)C(=O)NCC(=O)N[C@@H](C)C(=O)N1CCC[C@H]1C(=O)NCC(=O)N[C@@H](CC(N)=O)C(=O)N[C@@H](CC(=O)O)C(=O)NCC(=O)N[C@@H](C)C(=O)N[C@@H](CCCCN)C(=O)NCC(=O)N[C@@H](CC(=O)O)C(=O)N[C@@H](C)C(=O)NCC(=O)N[C@@H](C)C(=O)N1CCC[C@H]1C(=O)NCC(=O)N[C@@H](C)C(=O)N1CCC[C@H]1C(=O)O [compound 15] (H-GERGVQGPPGPAGPRGANGAPGNDGAKGDAGAPGAP-OH; N-terminus and C-terminus assumed),2111.23 µg
5,CSCC[C@H](NC(=O)CNC(=O)[C@H](CCC(N)=O)NC(=O)[C@H](CC(C)C)NC(=O)CNC(=O)[C@@H]1CCCN1C(=O)[C@H](C)NC(=O)CNC(=O)[C@H](CCC(N)=O)NC(=O)[C@H](CO)NC(=O)CNC(=O)[C@@H]1CCCN1C(=O)[C@H](C)NC(=O)CNC(=O)[C@@H]1CCCN1C(=O)[C@H](C)NC(=O)CNC(=O)[C@H](C)NC(=O)[C@H](CC(=O)O)NC(=O)CNC(=O)[C@H](CCCCN)NC(=O)[C@H](C)NC(=O)CNC(=O)[C@H](CC(=O)O)NC(=O)[C@H](CC(N)=O)NC(=O)CNC(=O)[C@@H]1CCCN1C(=O)[C@H](C)NC(=O)CNC(=O)[C@H](CC(N)=O)NC(=O)[C@H](C)NC(=O)CN)C(=O)N1CCC[C@H]1C(=O)NCC(=O)N[C@@H](CCC(=O)O)C(=O)N[C@@H](CCCNC(=N)N)C(=O)O [compound 16] (H-GANGAPGNDGAKGDAGAPGAPGSQGAPGLQGMPGER-OH; N-terminus and C-terminus assumed),2034.34 µg

# Continued, values first:
row,24h penetration amount,SMILES
1,2290.34 µg,CSCC[C@H](NC(=O)[C@@H](NC(=O)CNC(=O)[C@H](C)NC(=O)[C@H](CCC(N)=O)NC(=O)CNC(=O)[C@H](CCCNC(=N)N)NC(=O)[C@H](C)NC(=O)CNC(=O)[C@@H]1CCCN1C(=O)[C@@H]1CCCN1C(=O)CNC(=O)[C@@H]1CCCN1C(=O)[C@@H]1CCCN1C(=O)CNC(=O)[C@@H]1CCCN1C(=O)[C@H](CCCNC(=N)N)NC(=O)CN)C(C)C)C(=O)NCC(=O)N[C@@H](Cc1ccccc1)C(=O)N1CCC[C@H]1C(=O)NCC(=O)N1CCC[C@H]1C(=O)N[C@@H](CCCCN)C(=O)NCC(=O)N[C@@H](C)C(=O)N[C@@H](C)C(=O)NCC(=O)N[C@@H](CCC(=O)O)C(=O)N1CCC[C@H]1C(=O)NCC(=O)N[C@@H](CCCCN)C(=O)N[C@@H](C)C(=O)NCC(=O)N[C@@H](CCC(=O)O)C(=O)N[C@@H](CCCNC(=N)N)C(=O)O [compound 10] (H-GRPGPPGPPGARGQAGVMGFPGPKGAAGEPGKAGER-OH; N-terminus and C-terminus assumed)
2,2576.34 µg,CC(C)[C@H](NC(=O)[C@H](C)NC(=O)CNC(=O)[C@@H]1CCCN1C(=O)[C@@H]1CCCN1C(=O)CNC(=O)[C@@H]1CCCN1C(=O)[C@@H](NC(=O)CNC(=O)[C@H](CCCNC(=N)N)NC(=O)[C@H](CCC(=O)O)NC(=O)CNC(=O)[C@H](C)NC(=O)[C@H](CCCCN)NC(=O)CNC(=O)[C@@H]1CCCN1C(=O)[C@H](CCC(=O)O)NC(=O)CNC(=O)[C@H](C)NC(=O)[C@H](C)NC(=O)CNC(=O)[C@H](CCCCN)NC(=O)[C@@H]1CCCN1C(=O)CNC(=O)[C@@H]1CCCN1C(=O)[C@H](Cc1ccccc1)NC(=O)CN)C(C)C)C(=O)NCC(=O)N1CCC[C@H]1C(=O)N[C@@H](C)C(=O)NCC(=O)N[C@@H](CCCCN)C(=O)N[C@@H](CC(=O)O)C(=O)NCC(=O)N[C@@H](CCC(=O)O)C(=O)N[C@@H](C)C(=O)O [compound 11] (H-GFPGPKGAAGEPGKAGERGVPGPPGAVGPAGKDGEA-OH; N-terminus and C-terminus assumed)
3,2998.75 µg,CSCC[C@H](NC(=O)CNC(=O)[C@H](CCC(N)=O)NC(=O)[C@H](CC(C)C)NC(=O)CNC(=O)[C@@H]1CCCN1C(=O)[C@H](C)NC(=O)CNC(=O)[C@H](CCC(N)=O)NC(=O)[C@H](CO)NC(=O)CNC(=O)[C@@H]1CCCN1C(=O)[C@H](C)NC(=O)CNC(=O)[C@@H]1CCCN1C(=O)[C@H](C)NC(=O)CN)C(=O)N1CCC[C@H]1C(=O)NCC(=O)N[C@@H](CCC(=O)O)C(=O)N[C@@H](CCCNC(=N)N)C(=O)NCC(=O)N[C@@H](C)C(=O)N[C@@H](C)C(=O)NCC(=O)N[C@@H](CC(C)C)C(=O)N1CCC[C@H]1C(=O)NCC(=O)N1CCC[C@H]1C(=O)N[C@@H](CCCCN)C(=O)NCC(=O)N[C@@H](CC(=O)O)C(=O)N[C@@H](CCCNC(=N)N)C(=O)NCC(=O)N[C@@H](CC(=O)O)C(=O)N[C@@H](C)C(=O)O [compound 17] (H-GAPGAPGSQGAPGLQGMPGERGAAGLPGPKGDRGDA-OH; N-terminus and C-terminus assumed)
4,2309.24 µg,CC(C)C[C@H](NC(=O)CNC(=O)[C@H](CCCNC(=N)N)NC(=O)[C@@H](NC(=O)CNC(=O)[C@H](CC(=O)O)NC(=O)[C@H](CCCCN)NC(=O)CNC(=O)[C@@H]1CCCN1C(=O)[C@H](CO)NC(=O)CNC(=O)[C@H](CC(=O)O)NC(=O)[C@H](C)NC(=O)CNC(=O)[C@H](CCCCN)NC(=O)[C@@H]1CCCN1C(=O)CNC(=O)[C@H](C)NC(=O)[C@H](CC(=O)O)NC(=O)CNC(=O)[C@H](CCCNC(=N)N)NC(=O)[C@H](CC(=O)O)NC(=O)CNC(=O)[C@H](CCCCN)NC(=O)[C@@H]1CCCN1C(=O)CNC(=O)[C@@H]1CCCN1C(=O)[C@H](CC(C)C)NC(=O)CNC(=O)[C@H](C)NC(=O)[C@H](C)NC(=O)CNC(=O)[C@H](CCCNC(=N)N)NC(=O)[C@H](CCC(=O)O)NC(=O)CN)C(C)C)C(=O)N[C@H](C(=O)O)[C@@H](C)O [compound 18] (H-GERGAAGLPGPKGDRGDAGPKGADGSPGKDGVRGLT-OH; N-terminus and C-terminus assumed)
